Experimental data as given in US7910746B2, “Haloalkyl carboxamides” (Bayer CropScience AG, priority 2004, dated 2011).

System: Botrytis cinerea
Test: Botrytis test (bean)/protective
Format: in vivo
Conditions: protective, application rate 500 g/ha, evaluation two days after inoculation
Experimental: Botrytis Test (Bean)/Protective Solvent: • 24.5 parts by weight acetone • 24.5 parts by weight dimethyl acetamide Emulsifier: 1 part by weight alkyl aryl polyglycol ether To produce an appropriate active ingredient preparation, one part by weight of the active substance is mixed with the specified quantities of solvent and emulsifying agent, and the concentrate is diluted with water to the desired concentration. Young plants are sprayed with the active ingredient preparation at the specified application rate to test the effectiveness of protection. After the sprayed coating has dried, two small pieces of agar with cultured Botrytis cinerea are placed on each leaf. The inoculated plants are placed in a darkened chamber at about 20° C. and 100% relatively humidity. Two days after the inoculation, the size of the infestation spots on the leaves is evaluated. A degree of effectiveness rating of 0% corresponds to the control, with 100% indicating no infestation observed.

First: CCC(Cl)CC(C)c1ccccc1NC(=O)c1c(C)nn(C)c1F (stereo not drawn) [drawing 90]
Second: CCC(Cl)CC(C)c1ccccc1NC(=O)c1cn(C)nc1C(F)F (stereo not drawn) [drawing 91]
The “Degree of effectiveness in %” value of the first is lower: 82% for the first, 100% for the second.

For `CC(CCc1ccccc1NC(=O)c1cn(C)nc1C(F)F)C(F)(F)F` (stereo not drawn) [drawing 92], the “Degree of effectiveness in %” value was 99%.

System: not listed separately
Test: log P by HPLC on reverse phase column (C18), acid range
Format: physicochemical
Conditions: pH 2.3, HPLC C18, 43° C.
Experimental: The specified log P values are determined by HPLC on a reverse phase column (C18) in accordance with EEC Directive 79/831 Annex V.A8. Temperature: 43° C. Eluents for the measurement in the acid range (pH 2.3): 0.1% aqueous phosphoric acid, acetonitrile; linearer gradient of 10% acetonitrile to 90% acetonitrile. Calibration is performed with unbranched alkyl-2-ones (with 3 to 16 carbon atoms) with known log P values (determination of the log P values based on retention times by linear interpolation between two sequential alkyl ketones).

First: CC(CCc1cc(Cl)ccc1NC(=O)c1ccccc1C(F)(F)F)C(F)(F)F (stereo not drawn) [Example 1, N-[4-chloro-2-(4,4,4-trifluoro-3-methylbutyl)-phenyl]-2-trifluoromethylbenzamide]
Second: CC(CCc1ccccc1NC(=O)c1cn(C)nc1C(F)F)C(F)(F)F (stereo not drawn) [Example 2, 3-difluoromethyl-1-methyl-1H-pyrazole-4-carboxyic acid, [2-(4,4,4-trifluoro-3-methylbutyl)-phenyl]-amide]
The chromatographic logP of the first is higher: 4.08 for the first, 2.93 for the second.

System: Venturia inaequalis
Test: Venturia test (apple)/protective
Format: in vivo
Conditions: protective, application rate 100 g/ha, evaluation ten days after inoculation
Experimental: Venturia Test (Apple)/Protective Solvent: • 24.5 parts by weight acetone • 24.5 parts by weight dimethyl acetamide Emulsifier: 1 part by weight alkyl aryl polyglycol ether To produce an appropriate active ingredient preparation, one part by weight of the active substance is mixed with the specified quantities of solvent and emulsifying agent, and the concentrate is diluted with water to the desired concentration. Young plants are sprayed with the active ingredient preparation at the specified application rate to test the effectiveness of protection. After the sprayed coating has dried, the plants are inoculated with an aqueous conidia suspension of the apple scab pathogen Venturia inaequalis and are then kept in an incubator at 20° C. and 100% relatively humidity for one day. Then the plants are placed in the greenhouse at about 21° C. with relative humidity of about 90%. The evaluation is performed ten days after the inoculation. A degree of effectiveness rating of 0% corresponds to the control, with 100% indicating no infestation observed.

Compared with `CC(CCc1cc(Cl)ccc1NC(=O)c1cn(C)nc1C(F)F)C(F)(F)F` (stereo not drawn), `CC(CCc1ccccc1NC(=O)c1cn(C)nc1C(F)F)C(F)(F)F` (stereo not drawn) [drawing 89] is higher in “Degree of effectiveness in %” value: 93% for the first, 97% for the second.

`CCC(Cl)CC(C)c1ccccc1NC(=O)c1c(C)nn(C)c1F` (stereo not drawn) [drawing 85] and `CCC(Cl)CC(C)c1ccccc1NC(=O)c1cn(C)nc1C(F)F` (stereo not drawn) [drawing 86] are the same in “Degree of effectiveness in %” value: 100% for the first, 100% for the second.

`CC(CCc1ccccc1NC(=O)c1ccccc1I)C(F)(F)F` (stereo not drawn) [drawing 87] and `Cc1nn(C)c(F)c1C(=O)Nc1ccccc1CCC(C)C(F)(F)F` (stereo not drawn) [drawing 88] are the same in “Degree of effectiveness in %” value: 94% for the first, 94% for the second.

System: Alternaria solani
Test: Alternaria test (tomato)/protective
Format: in vivo
Conditions: protective, application rate 750 g/ha, evaluation seven days after inoculation
Experimental: Alternaria Test (Tomato)/Protective Solvent: 49 parts by weight N,N-dimethyl formamide Emulsifier: 1 part by weight alkyl aryl polyglycol ether To produce an appropriate active ingredient preparation, one part by weight of the active substance is mixed with the specified quantities of solvent and emulsifying agent, and the concentrate is diluted with water to the desired concentration. Young tomato plants are sprayed with the active ingredient preparation at the specified application rate to test the effectiveness of protection. One day after treatment, the plants are inoculated with a spore suspension of Alternaria solani and are kept for 24 hours at 100% relatively humidity and 20° C. Subsequently, the plants are kept at 96% relatively humidity and a temperature of 20° C. The evaluation is performed seven days after the inoculation. A degree of effectiveness rating of 0% corresponds to the control, with 100% indicating no infestation observed.

Going from `Cc1nn(C)c(F)c1C(=O)Nc1ccc(Cl)cc1CCC(C)C(F)(F)F` (stereo not drawn) to `CCC(Cl)CC(C)c1ccccc1NC(=O)c1c(C)nn(C)c1F` (stereo not drawn) [drawing 97], the “Degree of effectiveness in %” value rises from 90% to 100%.

For `CCC(Cl)CC(C)c1ccccc1NC(=O)c1cn(C)nc1C(F)F` (stereo not drawn) [drawing 98], the “Degree of effectiveness in %” value was 95%.

System: Sphaerotheca fuliginea
Test: Sphaerotheca test (cucumber)/protective
Format: in vivo
Conditions: protective, application rate 100 g/ha, evaluation seven days after inoculation
Experimental: Sphaerotheca Test (Cucumber)/Protective Solvent: • 24.5 parts by weight acetone • 24.5 parts by weight dimethyl acetamide Emulsifier: 1 part by weight alkyl aryl polyglycol ether To produce an appropriate active ingredient preparation, one part by weight of the active substance is mixed with the specified quantities of solvent and emulsifying agent, and the concentrate is diluted with water to the desired concentration. Young plants are sprayed with the active ingredient preparation at the specified application rate to test the effectiveness of protection. After the sprayed coating has dried, the plants are inoculated with an aqueous spore suspension of Sphaerotheca fuliginea. Then the plants are placed in the greenhouse at about 23° C. with relative humidity of about 70%. The evaluation is performed seven days after the inoculation. A degree of effectiveness rating of 0% corresponds to the control, with 100% indicating no infestation observed.

Compared with `CCC(Cl)CC(C)c1ccccc1NC(=O)c1c(C)nn(C)c1F` (stereo not drawn) [drawing 80], `CCC(Cl)CC(C)c1ccccc1NC(=O)c1cn(C)nc1C(F)F` (stereo not drawn) [drawing 81] is higher in “Degree of effectiveness in %” value: 95% for the first, 100% for the second.

Going from `Cc1nn(C)c(F)c1C(=O)Nc1ccccc1CCC(C)C(F)(F)F` (stereo not drawn) [drawing 82] to `CC(CCc1ccccc1NC(=O)c1cn(C)nc1C(F)F)C(F)(F)F` (stereo not drawn) [drawing 83], the “Degree of effectiveness in %” value falls from 100% to 98%.

System: Puccinia recondita
Test: Puccinia test (wheat)/protective
Format: in vivo
Conditions: protective, application rate 500 g/ha, evaluation ten days after inoculation
Experimental: Puccinia Test (Wheat)/Protective Solvent: 50 parts by weight N,N-dimethyl acetamide Emulsifier: 1 part by weight alkyl aryl polyglycol ether To produce an appropriate active ingredient preparation, one part by weight of the active substance is mixed with the specified quantities of solvent and emulsifying agent, and the concentrate is diluted with water to the desired concentration. Young plants are sprayed with the active ingredient preparation at the specified application rate to test the effectiveness of protection. After the sprayed coating has dried, the plants are sprayed with a conidia suspension of Puccinia recondita. The plants are kept in an incubator at 20° C. and 100% relatively humidity for 48 hours. Then the plants are placed in a greenhouse at a temperature of about 20° C. and a relatively humidity of 80%, in order to promote the development of rust spots. The evaluation is performed ten days after the inoculation. A degree of effectiveness rating of 0% corresponds to the control, with 100% indicating no infestation observed.

`CCC(Cl)CC(C)c1ccccc1NC(=O)c1cn(C)nc1C(F)F` (stereo not drawn) [drawing 93] and `CC(CCc1ccccc1NC(=O)c1cn(C)nc1C(F)F)C(F)(F)F` (stereo not drawn) [drawing 95] are the same in “Degree of effectiveness in %” value: 100% for the first, 100% for the second.

For `CC(CCc1ccccc1NC(=O)c1ccccc1I)C(F)(F)F` (stereo not drawn) [drawing 94], the “Degree of effectiveness in %” value was 100%.
